Columns and labels:
[1] = tested on: rats; details: cited from earlier work
[2] = target: T1, human β3-AR (Homo sapiens, UniProt P13945); experiment: cAMP functional agonist assay (LANCE TR-FRET) in CHO cells expressing cloned human β3-AR; assay type: cell-based; details: for EC50: CHO cells stably expressing cloned human β3-adrenoceptor, cAMP release, read-out: Human β3-AR Agonism EC50; for Fold drop in potency vs. 2-chloropyridine analog: EC50 of comparative example divided by EC50 of corresponding 2-chloropyridine compound; for Human β3-AR Agonist Activity (%): percent maximum activation relative to isoproterenol
T1 construct: expressed in transfected cells; host or cells: CHO (Chinese hamster ovary) cells, stably transfected

[3] = intravenous, cystometric studies

T1 sequence (P13945 whole entry): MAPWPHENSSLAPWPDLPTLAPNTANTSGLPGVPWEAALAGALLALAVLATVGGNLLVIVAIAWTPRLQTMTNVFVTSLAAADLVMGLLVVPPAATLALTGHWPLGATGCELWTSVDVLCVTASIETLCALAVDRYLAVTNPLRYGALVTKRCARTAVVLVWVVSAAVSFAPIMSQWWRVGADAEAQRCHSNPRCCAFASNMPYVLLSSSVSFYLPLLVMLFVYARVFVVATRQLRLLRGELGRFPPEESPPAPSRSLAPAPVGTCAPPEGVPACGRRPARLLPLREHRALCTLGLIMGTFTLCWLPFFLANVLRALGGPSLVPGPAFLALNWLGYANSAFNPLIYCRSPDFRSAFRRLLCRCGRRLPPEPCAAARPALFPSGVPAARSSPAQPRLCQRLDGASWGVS

Structure (SMILES) | bladder pressure ([1]; intravenous administration) | bladder capacity [1, 3] | micturition interval [1, 3] | residual urine volume [1, 3] | EC50 [2] [nM] | Fold drop in potency vs. 2-chloropyridine analog [2] [fold] | Human β3-AR Agonist Activity (%) [2] [%]
C[C@H](Cc1ccc2c(c1)OC(C(=O)[O-])(C(=O)[O-])O2)NC[C@H](O)c1cccc(Cl)c1.[Na+].[Na+] [CL316243] | reduces | increases | prolongation | without increasing | – | – | –
CC(c1cnccn1)N(C)C(=O)c1ccc(C[C@@H]2CC[C@H]([C@H](O)c3ccccc3)N2)cc1 (stereo partly drawn) [Example 41-B, 4-(((2S,5R)-5-((R)-hydroxy(phenyl)methyl)pyrrolidin-2-yl)methyl)-N-methyl-N-(1-(pyrazin-2-yl)ethyl)benzamide] | – | – | – | – | 16 | 9.1 | 109
CC(c1cnccn1)N(C)C(=O)c1ccc(C[C@@H]2CC[C@H]([C@H](O)c3ccc(F)cc3)N2)cc1 (stereo partly drawn) [Example 41-F, 4-(((2S,5R)-5-((R)-(4-fluorophenyl)(hydroxy)methyl)pyrrolidin-2-yl)methyl)-N-methyl-N-(1-(pyrazin-2-yl)ethyl)benzamide] | – | – | – | – | 6 | 3.5 | 83
CN(Cc1ccnnc1)C(=O)c1ccc(C[C@@H]2CC[C@H]([C@H](O)c3ccc(Cl)nc3)N2)cc1 [Example 42-A, 4-(((2S,5R)-5-((R)-(6-chloropyridin-3-yl)(hydroxy)methyl)pyrrolidin-2-yl)methyl)-N-methyl-N-(pyridazin-4-ylmethyl)benzamide] | – | – | – | – | 3 | – | 94
CN(Cc1ccnnc1)C(=O)c1ccc(C[C@@H]2CC[C@H]([C@H](O)c3ccccc3)N2)cc1 [Example 42-B, 4-(((2S,5R)-5-((R)-hydroxy(phenyl)methyl)pyrrolidin-2-yl)methyl)-N-methyl-N-(pyridazin-4-ylmethyl)benzamide] | – | – | – | – | 55 | 16.1 | 111
Cc1nnc2ccc(CN(C)C(=O)c3ccc(C[C@@H]4CC[C@H]([C@H](O)c5ccc(Cl)nc5)N4)cc3)cn12 [Example 43-A, 4-(((2S,5R)-5-((R)-(6-chloropyridin-3-yl)(hydroxy)methyl)pyrrolidin-2-yl)methyl)-N-methyl-N-((3-methyl-[1,2,4]triazolo[4,3-a]pyridin-6-yl)methyl)benzamide] | – | – | – | – | > 10000 | – | 45
Cc1nnc2ccc(CN(C)C(=O)c3ccc(C[C@@H]4CC[C@H]([C@H](O)c5ccccc5)N4)cc3)cn12 [Example 43-B, 4-(((2S,5R)-5-((R)-hydroxy(phenyl)methyl)pyrrolidin-2-yl)methyl)-N-methyl-N-((3-methyl-[1,2,4]triazolo[4,3-a]pyridin-6-yl)methyl)benzamide] | – | – | – | – | 1620 | <0.12 | 79
CN(Cc1nc2ccsc2c(=O)[nH]1)C(=O)c1ccc(C[C@@H]2CC[C@H]([C@H](O)c3ccc(Cl)nc3)N2)cc1 [Example 44-A, 4-(((2S,5R)-5-((R)-(6-chloropyridin-3-yl)(hydroxy)methyl)pyrrolidin-2-yl)methyl)-N-methyl-N-((4-oxo-3,4-dihydrothieno[3,2-d]pyrimidin-2-yl)methyl)benzamide] | – | – | – | – | 2 | – | 99
CN(Cc1nc2ccsc2c(=O)[nH]1)C(=O)c1ccc(C[C@@H]2CC[C@H]([C@H](O)c3ccccc3)N2)cc1 [Example 44-B, 4-(((2S,5R)-5-((R)-hydroxy(phenyl)methyl)pyrrolidin-2-yl)methyl)-N-methyl-N-((4-oxo-3,4-dihydrothieno[3,2-d]pyrimidin-2-yl)methyl)benzamide] | – | – | – | – | 4 | 1.7 | 97
CN(Cc1nc2ccccc2c(=O)n1C)C(=O)c1ccc(C[C@@H]2CC[C@H]([C@H](O)c3ccc(Cl)nc3)N2)cc1 [Example 45-A, 4-(((2S,5R)-5-((R)-(6-chloropyridin-3-yl)(hydroxy)methyl)pyrrolidin-2-yl)methyl)-N-methyl-N-((3-methyl-4-oxo-3,4-dihydroquinazolin-2-yl)methyl)benzamide] | – | – | – | – | 25 | – | 90
CN(Cc1nc2ccccc2c(=O)n1C)C(=O)c1ccc(C[C@@H]2CC[C@H]([C@H](O)c3ccccc3)N2)cc1 [Example 45-B, 4-(((2S,5R)-5-((R)-hydroxy(phenyl)methyl)pyrrolidin-2-yl)methyl)-N-methyl-N-((3-methyl-4-oxo-3,4-dihydroquinazolin-2-yl)methyl)benzamide] | – | – | – | – | 65 | 2.6 | 81
